Reference: patent US9968585B2, “Prevention or treatment agent for cerebral amyloid beta storage diseases” (TOYAMA CHEMICAL CO., LTD., priority 2014, dated 2018)

Columns and labels:
[1] = tested on: patient with complication of AZD and CAA; assay: Clinical case, Example 1: patient with complication of AZD and CAA; type: in vivo, human
From the text: Patient
Family history: […] died of cerebral hemorrhage (type unknown) in his 50s. […]
Past history: deep white matter lesions (diagnosed by head MRI, T2-WI), lateral ventricular low density area (diagnosed by head CT), and moderate cerebral atrophy in the cerebral cortex including the hippocampus, parietal lobe, and frontal lobe and mild disturbance of memorization had been observed. However, there was no particular problem in everyday life.
History of present illness: person, walking difficulty (decreased speed and decreased stability of walking) appeared and then progressed slowly. Continuous walking of long distances of 600 m or more and walking with a heavy load (10 kg or more) in their hand or on their shoulder became difficult. Short-stepped gait and frontal gait appeared sometimes, with no fall. Cerebrovascular disorder was suspected and examinations by CT and MRI (other than T2-WI) were conducted. However, any responsible lesions, which were likely to develop relatively rapid walking difficulties, were not found, other than deep white matter lesions and moderate cerebral atrophy, which were observed previously. Parkinson's disease (syndrome) was also suspected and a therapeutic agent for the disease was temporarily administered, which was stopped because of the lack of efficacy. […] Instability of walking also progressed relatively rapidly and it became difficult to walk outdoor without a walking stick.
Meanwhile, MRI (T1/2WI, T2-WI) detected multiple micro-bleeding mainly in the area from bilateral basal ganglia (thalamus and hypothalamus) to upper brain stem and the patient was diagnosed with CAA. The patient was also diagnosed with AZD based on diffuse cerebral atrophy including hippocampus and a wide range of cerebral cortex and moderate dementia. […]
For walking, an assistance, or at least handrail, became always necessary and continuous walking of distances of 50 m or more became difficult (unstable) even with an assistance. Furthermore, the patient was frequently found in a somnolence state even in the daytime and occasional decrease in the level of consciousness during meal caused difficulty in swallowing. Standing and walking became impossible during a period of repeated high fever. Chest CT detected a sign of aspiration pneumonia and the patient was admitted to a nearby hospital.
Immediately after the hospitalization, administration of antibiotics against the pulmonary inflammatory disease was started and high dose administration of mineralocorticoid (200 mg injection of Hydrocortone/day, for 7 days in plan) was also started for the purpose of steroid supplementation against the potential hypoadrenalism (mineral imbalance), due to the previous sustained steroid (5 mg) therapy. […] On Day 9 after the hospitalization, the patient became almost bedridden and nonresponsive. On Day 10 after the hospitalization, administration of a high dose of glucocorticoid (30 mg/day of Predonine) for anti-inflammatory effect was therefore started for the purpose of ameliorating the cerebral hypofunction, based on the informed consent.
However, from Day 20 after the hospitalization, a somnolence tendency appeared again and the symptoms of decline of cognitive ability, inability to walk, lack of speech, urine incontinence, apraxia and agnosia appeared again.
Since no tendency to alleviate the symptoms was observed, on Day 22 after the hospitalization, administration of 25 mg of iguratimod (for example, the trade name “Kolbet” produced and sold as an antirheumatic drug by Taisho Toyama Pharmaceutical Co., Ltd. or the trade name “Careram” produced and sold by Eisai Co., Ltd.), in addition to the high dose glucocorticoid therapy, was started for the purpose of ameliorating cognitive impairment, walking impairment, decrease of energy and spontaneity, and aphasia, apraxia, and agnosia, based on the informed consent. […]

[2] = compared with MTX and SASP; cited from earlier work
[3] = tested on: patient with moderate dementia caused by AZD; assay: Clinical case, Example 2: patient with moderate dementia caused by AZD, not associated with CAA; type: in vivo, human
Protocol: A person became indifferent to social activities and meeting people 3 to 4 years ago. Cognitive impairment appeared to the degree to cause difficulty in daily life activities 2 years ago. One year ago, cognitive impairment further progressed and MMSE was conducted to get scores of 14 or less. Since a head imaging detected moderate atrophy in the cerebral cortex including the parietal lobe and the hippocampus, the patient was diagnosed with “moderate dementia caused by AZD” based on the clinical and brain imaging observations. In the everyday life, disturbance of memorization was observed, in which the patient forgot contents of conversation in 5 minutes and purchased the same thing repeatedly when they went out alone. The patient liked cooking previously, but became unable to cook or adjust the taste. […] The patient became unable to manage own medication such as an antihypertensive agent (cognitive impairment on table and calculation) and management by a family member became necessary. Since efficacy (suppression of progressive symptoms) of a conventional drug against AZD was not observed for a half year or more, the administration of iguratimod at 25 mg/day was started, based on the informed consent to the patient and their family, and the dose was increased to 50 mg/day 4 weeks later.

[4] = tested on: production of interleukin-1 and 6 (IL-1/6) and tumor necrosis factor (TNFα) from monocyte lineage cells (macrophages); conditions: in inflammation; cited from earlier work
[5] = 6 months after starting the administration
[6] = at discharge, 2 months after starting the administration

C[C@]12C=CC(=O)C=C1CC[C@@H]1[C@@H]2[C@@H](O)C[C@@]2(C)[C@H]1CC[C@]2(O)C(=O)CO [Predonine]
neurological symptoms (somnolence, energy, speech, walking, meals) ([1]; high dose glucocorticoid (30 mg/day of Predonine) started on Day 10 after hospitalization): alleviated a neurological symptom (decrease in somnolence), increased energy and speech
prevention of progression of the symptoms ([1]; sustained glucocorticoid therapy at maximum dose for the patient's age, for 10 days or more, symptoms reappeared from Day 20 after hospitalization): cannot prevent the progression of the symptoms

CS(=O)(=O)Nc1cc2occ(NC=O)c(=O)c2cc1Oc1ccccc1 [iguratimod, N-(3-formamido-4-oxo-6-phenoxy-4H-chromen-7-yl) methanesulfonamide]
continuous walking distance with an assistance [1, 5]: about 100 m
steps of stairs walked up with an assistance and use of handrail [1, 5]: 15 steps
head MRI: novel vascular abnormality or progression of cerebral atrophy ([1]; 6 months after starting the administration, compared with MRI before starting): did not detect any appearance of novel vascular abnormality or progression of cerebral atrophy
head imaging by 3T-MRI:SWI: progression of cerebral atrophy and other lesions ([1]; 7 months and 19 months after the beginning of iguratimod): the progression of cerebral atrophy and other lesions was not apparent
eating behavior ([1]; a half year after starting the administration): able to have meals by oneself using chopsticks
continuous walking distance with an assistance [1, 6]: about 50 m
steps of stairs walked up with an assistance at both arms [1, 6]: 8 steps
spontaneity and neurological symptoms ([1]; iguratimod 25 mg added to high dose glucocorticoid, 2 days after starting the administration): apparent amelioration of spontaneity was observed
mini-mental state examination (MMSE) score ([1]; one year after starting oral administration, score before starting 10 or less (severe dementia)): ≥ 10
symptoms after steroid agent stopped completely ([1]; one year after starting the administration of iguratimod): no aggravation of symptoms
efficacy in rheumatoid arthritis [2]: efficacy equivalent to MTX and SASP
head imaging: progression of cerebral atrophy ([3]; 5 months after starting the administration): the progression of cerebral atrophy was not observed
Scores of MMSE ([3]; 5 months after starting the administration, scores one year before 14 or less): ≥ 17
symptoms in daily life ([3]; iguratimod 25 mg/day, 50 mg/day after 4 weeks, 3 months after starting the administration): symptoms such as getting lost and failing to go home and purchasing the same thing repeatedly had disappeared
effect on production of IL-1/6 and TNFα from monocyte lineage cells (macrophages) [4]: suppressing effects

C[C@]12CCC(=O)C=C1CC[C@@H]1[C@@H]2[C@@H](O)C[C@@]2(C)[C@H]1CC[C@]2(O)C(=O)CO [Hydrocortone]
neurological symptoms (energy, speech, cognitive function, walking ability) ([1]; 200 mg injection/day, from 3 days after the start of the steroid replacement therapy): increase in energy and speech, amelioration of cognitive function, and improvement of walking ability were observed
neurological symptoms ([1]; 200 mg injection/day, from Day 5 to 6 after the start of administration): the symptoms gradually aggravated
